We go through 13 compounds from PubChem BioAssay (NCI).

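Where inhibition never reached the appropriate level, the endpoint shown equals the highest concentration tested. Otherwise, values were interpolated linearly from a five-concentration, 48-hour dose response in 96-well plates. TGI denotes the concentration required for complete inhibition of growth.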

Assay in all cases: NCI-60 cell line screen, 48 h
For assay [1], the system named is TK-10 renal.
Assay [2] relates to SNB-19 CNS.
The test system of assay [3] is M14 melanoma.
In assay [4] the test system is OVCAR-8 ovarian.
For assay [5], the system named is SK-MEL-5 melanoma.
The subject of assay [6] is SF-295 CNS.
Assay [7] concerns A549 NSCLC.
Assay [8] deals with CCRF-CEM leukemia.
Assay [9] relates to HT29 colon.
The subject of assay [10] is SN12C renal.
In assay [11] the test system is OVCAR-5 ovarian.
Assay [12] relates to NCI-H23 lung.
Assay [13] deals with HCC-2998 colon.
In assay [14] the test system is NCI/ADR-RES ovarian.
Assay [15] has as its system NCI-H226 lung.
Assay [16] concerns SK-MEL-2 melanoma.

For the compound `Clc1cc(Cl)cc(C=NC23CC4CC(CC(C4)C2)C3)c1`, the TGI in assay [1], in assay [2], in assay [3], in [4], in [5] and in assay [6] was over 10 µM throughout. Also, the TGI in assay [7], in [8], in [9], in assay [10], in assay [11] and in assay [12] was over 10 µM throughout. The TGI in assay [13], in [14], in assay [15] and in [16] was over 10 µM each time.
In the case of `Nc1ccc2c(SCc3ccc([N+](=O)[O-])cc3)c3ccccc3nc2c1`, the TGI amounted to 26.5 µM in [1]; 59.1 µM in [2]; 24.1 µM in assay [3]; 26.7 µM in assay [4]; 28.4 µM in [5]; 36.8 µM in assay [6]. Further, the TGI in assay [7] worked out at 48.9 µM; in assay [8], 5.15 µM; in assay [9], 32.6 µM; in assay [10], 34 µM; in [11], 35.9 µM; in assay [12], 32.8 µM. Moreover, the TGI in assay [13] was over 54 µM; in [14], 40.6 µM; in [15] it was 38.3 µM; in assay [16], 32.4 µM.
Consider `O=C1NCc2ccccc2S(=O)(=O)n2cccc21`, for which the TGI in assay [1], in assay [2], in [3], in [4], in assay [5] and in assay [6] was over 100 µM in each case. The TGI in assay [7], in assay [8], in assay [9], in assay [10], in [11] and in assay [12] was over 100 µM each time. The TGI in assay [13], in assay [14], in assay [15] and in assay [16] was over 100 µM in each case.
As for `COc1cc2c(cc1OC)C(=O)/C(=C/c1ccc(Cl)cc1)CC2`, the TGI in [1], in [2], in [3], in assay [4], in assay [5] and in assay [6] was over 10 µM each time. For the same compound, the TGI in assay [7], in [8], in assay [9], in assay [10], in [11] and in assay [12] was over 10 µM in each case. Besides, the TGI in assay [13], in assay [14], in [15] and in assay [16] was over 10 µM throughout.
On to `CC(C)OCC1CC(CC(=O)Nc2nncs2)C(=O)O1` (stereo not drawn), for which the TGI in assay [1], in assay [2], in [3], in assay [4], in assay [5] and in assay [6] was over 100 µM in each case. In addition, the TGI in assay [7], in assay [8], in assay [9], in assay [10], in assay [11] and in [12] was over 100 µM in each case. Besides, the TGI in [13], in [14], in assay [15] and in assay [16] was over 100 µM each time.
For the compound `CC(C)=CCC/C(=C/CC/C(=C\CCc1ccoc1)C(=O)O)C(=O)O`, the TGI in assay [1], in assay [2], in assay [3], in [4], in [5] and in assay [6] was over 100 µM in each case. Further, the TGI in assay [7], in assay [8], in assay [9], in [10], in assay [11] and in [12] was over 100 µM each time. The TGI in assay [13], in [14], in assay [15] and in assay [16] was over 100 µM throughout.
Regarding `C[C@H](NC(=O)c1ccc(CNC(=O)/C=C/c2cccc(Oc3ccccc3)c2)cc1)c1ccccc1`, the TGI in [1], in [2], in assay [3], in assay [4], in assay [5] and in assay [6] was over 100 µM in each case. For the same compound, the TGI in assay [7], in assay [8], in assay [9], in [10], in [11] and in [12] was over 100 µM each time. Moreover, the TGI in [13], in assay [14], in assay [15] and in [16] was over 100 µM throughout.
On to `CCOC(=O)c1cn2c(n1)sc1c(Cl)c(Cl)ccc12`, for which the TGI in assay [1] is over 79.4 µM; in [2], 98.9 µM; in [3], over 96.3 µM; in assay [4] it was over 66 µM; in [5], 65.7 µM; in assay [6], over 100 µM. Also, the TGI in assay [7] was over 100 µM; in assay [8] it was over 100 µM; in assay [9] it was over 45.6 µM; in assay [10] it was 39 µM; in assay [11], over 100 µM; in [12], over 100 µM. The TGI was 98 µM in [13], 97.9 µM in assay [14], 51.6 µM in assay [15] and over 100 µM in [16].
`O=S(=O)(O)C(=Nc1cccc(Cc2ccccc2)c1)Nc1cccc(Cc2ccccc2)c1`: the TGI in assay [1] turned out to be 35.6 µM; in assay [2] it was 48.5 µM; in assay [3], 31.8 µM; in [4], 36.2 µM; in assay [5], 32.4 µM; in [6], 34.3 µM. Besides, the TGI in assay [7] was found to be 51.9 µM; in [8], 98 µM; in assay [9] it was 34.5 µM; in [10] it was 37.2 µM; in assay [11], 33.7 µM; in [12] it was 31.9 µM. Also, the TGI in [13] was found to be 35.5 µM; in assay [14], 35.2 µM; in assay [15], 33.7 µM; in [16] it was 44.6 µM.
For `CN1CCN(c2ncc3c(n2)sc2c(=O)n(-c4ccccc4)cnc23)CC1`, the TGI in assay [1], in assay [2], in assay [3], in assay [4], in assay [5] and in assay [6] was over 100 µM each time. In addition, the TGI in assay [7], in assay [8], in assay [9], in [10], in assay [11] and in assay [12] was over 100 µM in each case. Further, the TGI in [13], in [14], in assay [15] and in assay [16] was over 100 µM each time.
In the case of `Cn1c2ccc3cc2c(=S)c2cc(ccc21)OCCOCCOCCOCCOCCO3`, the TGI in [1], in [2], in assay [3], in assay [4], in [5] and in [6] was over 10 µM each time. Further, the TGI in assay [7], in assay [8], in assay [9], in assay [10], in assay [11] and in assay [12] was over 10 µM throughout. Also, the TGI in assay [13], in assay [14], in assay [15] and in assay [16] was over 10 µM each time.
Turning to `CN(C)C(=S)/N=c1\ssc(=S)n1Cc1cccnc1`, the TGI in [1] is over 100 µM; in assay [2] it was over 100 µM; in assay [3], 59.2 µM; in [4] it was over 100 µM; in assay [5], 37.8 µM; in assay [6], 16.8 µM. In addition, the TGI in assay [7] is over 100 µM; in assay [8], over 86.1 µM; in assay [9] it was over 49.5 µM; in assay [10], over 100 µM; in assay [11], over 100 µM; in assay [12], over 69.6 µM. Further, the TGI in assay [13] was over 100 µM; in [14], 4.51 µM; in [15] it was over 100 µM; in assay [16], over 35.8 µM.
As to `Cn1c(O)c(C=Nc2ccccc2[N+](=O)[O-])c(=O)n(C)c1=O`, the TGI in assay [1], in assay [2], in assay [3], in [4], in assay [5] and in [6] was over 100 µM each time. Moreover, the TGI in assay [7], in assay [8], in assay [9], in [10], in assay [11] and in [12] was over 100 µM throughout. For the same compound, the TGI in [13], in assay [14], in assay [15] and in assay [16] was over 100 µM throughout.
